Experimental data reported in patent US6689395B2, “Pesticidal compositions containing plant essential oils against mites” (priority 1999, dated 2004).

Test system: mold mite
Test: Toxicity of plant essential oils fogged into food cartons against mold mites
Assay type: in vivo
Settings: for control of the mites (pest mortality): about 1 g test substance fogged into half pint milk carton, about 100 mites per carton, cartons opened at 24 hour intervals, from day one; for control of the mites (mortality): repeated experiment, cartons not opened until day ten
From the text: Half pint milk cartons were used as sample food containers. The composition of the carton is multilayer paper, plastic and foil. The last two inner layers are foil and plastic; the food inside the carton is in contact with the plastic. Utilizing a ULV sprayer, the plant essential oils were fogged into the container. Approximately one gram of liquid test substance (i.e. plant essential oil) was deposited into the container. The desired amount of food and approximately 100 mites per carton were then added to the container and the carton was sealed. The materials tested included 2-phenyl ethyl alcohol, 2-phenyl ethyl propionate, trans-anethole, and benzyl alcohol. The cartons were opened at 24 hour intervals, a new carton each interval, to observe for pest mortality and the results were recorded.
The experiment was repeated, but the cartons were not opened until day ten.

SMILES	control of the mites (pest mortality)	control of the mites (mortality)
CCC(=O)OCCc1ccccc1 [2-phenyl ethyl propionate]	good control	best results of mortality
OCCc1ccccc1 [2-phenyl ethyl alcohol]	good control	best results of mortality
